Measured values published in patent US7767659B2, “Synthesis of naturally occurring ecteinascidins and related compounds” (Pharma Mar, S.A., priority 2002, dated 2010).

What was measured:
LoVo = assay: cells; details: Homo sapiens, LoVo, 48 h; for GI50: read-out: GI50 LOVO; for CC50: read-out: LC50 LOVO; for IC (TGI): read-out: TGI LOVO
Summary of the method: (§1)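 Colorimetric SRB read (490 nm) on triplicate wells after 48 h at 37 °C, 5% CO2. Dose range 10 to 10^−8 μg/ml; 5×10^3 cells/well pre-attached 18 h.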

A-549 = assay: cells; details: Homo sapiens, A549, 48 h; for GI50: read-out: GI50 A549; for CC50: read-out: LC50 A549; for IC (TGI): read-out: TGI A549
Summary of the method: as §1

HT-29 = assay: cells; details: Homo sapiens, HT-29, 48 h; for GI50: read-out: GI50 HT29; for CC50: read-out: LC50 HT29; for IC (TGI): read-out: TGI HT29
Summary of the method: as §1

IGROV-ET = assay: Inhibition of cells growth by colorimetric assay (SRB); details: Homo sapiens, 48 h; for GI50: read-out: GI50 IGROV-ET; for CC50: read-out: LC50 IGROV-ET; for IC (TGI): read-out: TGI IGROV-ET
Summary of the method: as §1

LNCaP = assay: as above; details: Homo sapiens, LNCaP, 48 h; for GI50: read-out: GI50 LNCAP; for CC50: read-out: LC50 LNCAP; for IC (TGI): read-out: TGI LNCAP
Summary of the method: as §1

PANC-1 = assay: as above; details: Homo sapiens, PANC-1, 48 h; for GI50: read-out: GI50 PANC-1; for CC50: read-out: LC50 PANC-1; for IC (TGI): read-out: TGI PANC-1
Summary of the method: as §1

SK-BR-3 = assay: as above; details: Homo sapiens, SK-BR-3, 48 h; for GI50: read-out: GI50 SK-BR3; for CC50: read-out: LC50 SK-BR3; for IC (TGI): read-out: TGI SK-BR3
Summary of the method: as §1

IGROV-1 = assay: as above; details: Homo sapiens, IGROV-1, 48 h; for GI50: read-out: GI50 IGROV; for CC50: read-out: LC50 IGROV; for IC (TGI): read-out: TGI IGROV
Summary of the method: as §1

LoVo-Dox = assay: as above; details: Homo sapiens, 48 h; for GI50: read-out: GI50 LOVO-DOX; for CC50: read-out: LC50 LOVO-DOX; for IC (TGI): read-out: TGI LOVO-DOX
Summary of the method: as §1

HeLa-APL = assay: as above; details: Homo sapiens, 48 h; for GI50: read-out: GI50 HELA-APL; for CC50: read-out: LC50 HELA-APL; for IC (TGI): read-out: TGI HELA-APL
Summary of the method: as §1

HeLa = assay: as above; details: Homo sapiens, HeLa, 48 h; for GI50: read-out: GI50 HELA; for CC50: read-out: LC50 HELA; for IC (TGI): read-out: TGI HELA
Summary of the method: as §1

DU-145 = assay: as above; details: Homo sapiens, DU-145, 48 h; for GI50: read-out: GI50 DU145; for CC50: read-out: LC50 DU145; for IC (TGI): read-out: TGI DU145
Summary of the method: as §1

SK-MEL-28 = assay: as above; details: Homo sapiens, SK-MEL-28, 48 h; for GI50: read-out: GI50 MEL-28; for CC50: read-out: LC50 MEL-28; for IC (TGI): read-out: TGI MEL-28
Summary of the method: as §1

K-562 = assay: as above; details: Homo sapiens, K562, 48 h; for GI50: read-out: GI50 K562; for CC50: read-out: LC50 K562; for IC (TGI): read-out: TGI K562
Summary of the method: as §1

SMILES: COc1c(C)cc2c(c1O)[C@H]1N[C@@H](C2)[C@H](C#N)N2C1[C@@H]1SCC(NC(C)=O)C(=O)OC[C@H]2c2c3c(c(C)c(OC(C)=O)c21)OCO3 (stereo partly drawn) [compound 30]
- GI50 (LoVo): 2 nM
- CC50 (LoVo): 15400 nM
- IC (TGI) (LoVo): 8.07 nM
- GI50 (A-549): 3.47 nM
- CC50 (A-549): 89 nM
- IC (TGI) (A-549): 10.5 nM
- GI50 (HT-29): 2.03 nM
- CC50 (HT-29): 15400 nM
- IC (TGI) (HT-29): 13.5 nM
- GI50 (IGROV-ET): 25.4 nM
- CC50 (IGROV-ET): 15400 nM
- IC (TGI) (IGROV-ET): 82.4 nM
- GI50 (LNCaP): 96.8 nM
- CC50 (LNCaP): 147 nM
- IC (TGI) (LNCaP): 120 nM
- GI50 (PANC-1): 2.89 nM
- CC50 (PANC-1): 15400 nM
- IC (TGI) (PANC-1): 15.5 nM
- GI50 (SK-BR-3): 0.527 nM
- CC50 (SK-BR-3): 267 nM
- IC (TGI) (SK-BR-3): 2.29 nM
- GI50 (IGROV-1): 0.695 nM
- CC50 (IGROV-1): 231 nM
- IC (TGI) (IGROV-1): 3.32 nM
- GI50 (LoVo-Dox): 207 nM
- CC50 (LoVo-Dox): 15400 nM
- IC (TGI) (LoVo-Dox): 2070 nM
- GI50 (HeLa-APL): 1.86 nM
- CC50 (HeLa-APL): 19.5 nM
- IC (TGI) (HeLa-APL): 5.5 nM
- GI50 (HeLa): 1.15 nM
- CC50 (HeLa): 21.7 nM
- IC (TGI) (HeLa): 4.53 nM
- GI50 (DU-145): 2.63 nM
- CC50 (DU-145): 14100 nM
- IC (TGI) (DU-145): 7.44 nM
- GI50 (SK-MEL-28): 1.09 nM
- CC50 (SK-MEL-28): 10.7 nM
- IC (TGI) (SK-MEL-28): 3.66 nM
- GI50 (K-562): 0.312 nM
- CC50 (K-562): 9510 nM
- IC (TGI) (K-562): 2.49 nM

SMILES: COc1c(C)cc2c(c1O)[C@H]1N[C@@H](C2)[C@H](C#N)N2C1[C@@H]1SCC(NC(=O)C(F)(F)F)C(=O)OC[C@H]2c2c3c(c(C)c(OC(C)=O)c21)OCO3 (stereo partly drawn) [compound 31]
- GI50 (LoVo): 0.688 nM
- CC50 (LoVo): 1820 nM
- IC (TGI) (LoVo): 3.49 nM
- GI50 (A-549): 1.83 nM
- CC50 (A-549): 92.1 nM
- IC (TGI) (A-549): 5.97 nM
- GI50 (HT-29): 1.97 nM
- CC50 (HT-29): 3680 nM
- IC (TGI) (HT-29): 16.2 nM
- GI50 (IGROV-ET): 2.91 nM
- CC50 (IGROV-ET): 2090 nM
- IC (TGI) (IGROV-ET): 7.49 nM
- GI50 (LNCaP): 0.419 nM
- CC50 (LNCaP): 90.7 nM
- IC (TGI) (LNCaP): 16.3 nM
- GI50 (PANC-1): 0.807 nM
- CC50 (PANC-1): 1770 nM
- IC (TGI) (PANC-1): 6.68 nM
- GI50 (SK-BR-3): 0.396 nM
- CC50 (SK-BR-3): 60.7 nM
- IC (TGI) (SK-BR-3): 1.22 nM
- GI50 (IGROV-1): 0.413 nM
- CC50 (IGROV-1): 12.6 nM
- IC (TGI) (IGROV-1): 1.07 nM
- GI50 (LoVo-Dox): 9.05 nM
- CC50 (LoVo-Dox): 7210 nM
- IC (TGI) (LoVo-Dox): 1480 nM
- GI50 (HeLa-APL): 0.576 nM
- CC50 (HeLa-APL): 9.96 nM
- IC (TGI) (HeLa-APL): 1.96 nM
- GI50 (HeLa): 0.678 nM
- CC50 (HeLa): 11.2 nM
- IC (TGI) (HeLa): 2.04 nM
- GI50 (DU-145): 0.444 nM
- CC50 (DU-145): 2230 nM
- IC (TGI) (DU-145): 0.951 nM
- GI50 (SK-MEL-28): 0.832 nM
- CC50 (SK-MEL-28): 8.06 nM
- IC (TGI) (SK-MEL-28): 2.54 nM
- GI50 (K-562): 0.226 nM
- CC50 (K-562): 126 nM
- IC (TGI) (K-562): 0.792 nM

SMILES: CCCCCCCCCCCCCCCC(=O)NC1CS[C@@H]2c3c(OC(C)=O)c(C)c4c(c3[C@H](COC1=O)N1C2[C@@H]2N[C@@H](Cc3cc(C)c(OC)c(O)c32)[C@@H]1C#N)OCO4 (stereo partly drawn) [compound 32]
- GI50 (LoVo): 1890 nM
- CC50 (LoVo): 7390 nM
- IC (TGI) (LoVo): 3760 nM
- GI50 (A-549): 2380 nM
- CC50 (A-549): 7700 nM
- IC (TGI) (A-549): 4290 nM
- GI50 (HT-29): 3480 nM
- CC50 (HT-29): 10700 nM
- IC (TGI) (HT-29): 6100 nM
- GI50 (IGROV-ET): 2850 nM
- CC50 (IGROV-ET): 9670 nM
- IC (TGI) (IGROV-ET): 5240 nM
- GI50 (LNCaP): 1770 nM
- CC50 (LNCaP): 6410 nM
- IC (TGI) (LNCaP): 3360 nM
- GI50 (PANC-1): 2560 nM
- CC50 (PANC-1): 8790 nM
- IC (TGI) (PANC-1): 4750 nM
- GI50 (SK-BR-3): 263 nM
- CC50 (SK-BR-3): 7520 nM
- IC (TGI) (SK-BR-3): 1660 nM
- GI50 (IGROV-1): 1970 nM
- CC50 (IGROV-1): 7740 nM
- IC (TGI) (IGROV-1): 3910 nM
- GI50 (LoVo-Dox): 802 nM
- CC50 (LoVo-Dox): 6760 nM
- IC (TGI) (LoVo-Dox): 2480 nM
- GI50 (HeLa-APL): 33.9 nM
- CC50 (HeLa-APL): 108 nM
- IC (TGI) (HeLa-APL): 60.5 nM
- GI50 (HeLa): 253 nM
- CC50 (HeLa): 689 nM
- IC (TGI) (HeLa): 418 nM
- GI50 (DU-145): 2480 nM
- CC50 (DU-145): 9390 nM
- IC (TGI) (DU-145): 4830 nM
- GI50 (SK-MEL-28): 2410 nM
- CC50 (SK-MEL-28): 7130 nM
- IC (TGI) (SK-MEL-28): 4140 nM
- GI50 (K-562): 694 nM
- CC50 (K-562): 6810 nM
- IC (TGI) (K-562): 2200 nM
